According to patent US10703765B2 (priority 2014, dated 2020):
pKi: −log10 of the molar value. Structures can show the parent of a compound that is named as a salt.

Each compound was assayed against human σ1 receptor (Homo sapiens, UniProt Q99720) (assay: biochemical). Conditions: not given.
Format: binding
Parameters: μ and σ1 dual binding: key to the marks not given beside the values

Chain of human σ1 receptor (Q99720 whole entry): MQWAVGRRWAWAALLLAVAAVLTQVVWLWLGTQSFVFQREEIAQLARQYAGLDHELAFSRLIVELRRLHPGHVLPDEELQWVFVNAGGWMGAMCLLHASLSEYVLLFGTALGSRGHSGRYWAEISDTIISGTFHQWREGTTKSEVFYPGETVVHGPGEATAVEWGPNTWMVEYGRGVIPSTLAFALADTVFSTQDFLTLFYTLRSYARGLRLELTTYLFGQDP

Compound	pKi	μ and σ1 dual binding
CC(C)C1OC2(CCN(CCc3cccnc3N)CC2)CN(c2ccccc2F)C1=O (centres unmarked) [Example 238, 9-(2-(2-aminopyridin-3-yl)ethyl)-4-(2-fluorophenyl)-2-isopropyl-1-oxa-4,9-diazaspiro[5.5]undecan-3-one dihydrochloride]	> 7.00	
CC1OC2(CCN(CCc3cccnc3N)CC2)CN(c2ccccc2)C1=O (centres unmarked) [Example 234, 9-(2-(2-aminopyridin-3-yl)ethyl)-2-methyl-4-phenyl-1-oxa-4,9-diazaspiro[5.5]undecan-3-one hydrochloride]	> 6.30	
Cl.O=C1COC2(CCN(CCc3ccccc3)C2)CN1c1ccccc1 (centres unmarked) [Example 149, 2-phenethyl-9-phenyl-6-oxa-2,9-diazaspiro[4.5]decan-8-one hydrochloride]		++
CC1OC2(CCN(CCc3ccc(C#N)cc3)CC2)CN(c2ccccc2)C1=O.Cl (centres unmarked) [Example 76, 4-(2-(2-methyl-3-oxo-4-phenyl-1-oxa-4,9-diazaspiro[5.5]undecan-9-yl)ethyl)benzonitrile hydrochloride]		++
CC1OC2(CCN(CCn3ccc4cccnc43)CC2)CN(c2ccccc2)C1=O.Cl (centres unmarked) [Example 69, 9-(2-(1H-pyrrolo[2,3-b]pyridin-1-yl)ethyl)-2-methyl-4-phenyl-1-oxa-4,9-diazaspiro[5.5]undecan-3-one hydrochloride]		++
CC1OC2(CCN(CCc3cccc(NC(N)=O)n3)CC2)CN(c2ccccc2)C1=O (centres unmarked) [Example 264, 1-(6-(2-(2-methyl-3-oxo-4-phenyl-1-oxa-4,9-diazaspiro[5.5]undecan-9-yl)ethyl)pyridin-2-yl)urea]	> 6.30	
OCCC1CN(c2ccccc2)CC2(CCN(CCc3ccccc3)CC2)O1 (centres unmarked) [Example 323, 2-(9-phenethyl-4-phenyl-1-oxa-4,9-diazaspiro[5.5]undecan-2-yl)ethanol hydrochloride]	> 6.30	
COC(=O)c1ccc(CCN2CCC3(CC2)CN(c2ccccc2)C(=O)C(C)O3)cc1.Cl (centres unmarked) [Example 70, methyl 4-(2-(2-methyl-3-oxo-4-phenyl-1-oxa-4,9-diazaspiro[5.5]undecan-9-yl)ethyl)benzoate hydrochloride]		++
CC(=O)Nc1cccc(CCN2CCC3(CC2)CN(c2ccccc2)C(=O)C2(CC2)O3)c1 [Example 246, N-[3-(2-{13-oxo-12-phenyl-4-oxa-8,12-diazadispiro[2.1.5.3]tridecan-8-yl}ethyl)phenyl]acetamide]	> 6.30	
Cl.O=C1COC2(CCN(Cc3ccccc3)CC2)CN1c1ccc(F)cc1 [Example 188, 9-benzyl-4-(4-fluorophenyl)-1-oxa-4,9-diazaspiro[5.5]undecan-3-one hydrochloride]		++
COc1cccc(CCN2CCC3(CC2)CN(c2ccccc2F)C(=O)C(C)O3)c1 (centres unmarked) [Example 83, 4-(2-fluorophenyl)-9-(3-methoxyphenethyl)-2-methyl-1-oxa-4,9-diazaspiro[5.5]undecan-3-one hydrochloride]	> 7.00	
COc1ccc(N2CC3(CCN(CCc4ccccc4)CC3)OC(C)C2=O)cc1.Cl (centres unmarked) [Example 1, 4-(4-methoxyphenyl)-2-methyl-9-phenethyl-1-oxa-4,9-diazaspiro[5.5]undecan-3-one hydrochloride]		++
COCCN1CC2(CCN(CCc3ccccc3)CC2)OC2(CC2)C1=O.Cl [Example 184, 12-(2-methoxyethyl)-8-phenethyl-4-oxa-8,12-diazadispiro[2.1.5.3]tridecan-13-one hydrochloride]		++
CC(C)CCN1CCC2(CC1)CN(c1ccccc1F)C(=O)C(C)O2.Cl (centres unmarked) [Example 81, 4-(2-fluorophenyl)-9-isopentyl-2-methyl-1-oxa-4,9-diazaspiro[5.5]undecan-3-one hydrochloride]		++
CC1CN(Cc2ccn(C)n2)CC2(CCN(CCc3ccccc3)CC2)O1 (centres unmarked) [Example 328, 2-methyl-4-((1-methyl-1H-pyrazol-3-yl)methyl)-9-phenethyl-1-oxa-4,9-diazaspiro[5.5]undecane dihydrochloride]		++
CC1OC2(CCN(CCc3nccs3)CC2)CN(c2ccccc2)C1=O (centres unmarked) [Example 95, 2-methyl-4-phenyl-9-(2-(thiazol-2-yl)ethyl)-1-oxa-4,9-diazaspiro[5.5]undecan-3-one hydrochloride]	> 6.30	
CC1OC2(CCN(CCc3ccccc3N)CC2)CN(c2ccccc2)C1=O (centres unmarked) [Example 229, 9-(2-aminophenethyl)-2-methyl-4-phenyl-1-oxa-4,9-diazaspiro[5.5]undecan-3-one]	> 7.00	

Same assay, conditions: combined class from Ki-σ1 (human σ1 receptor, A1) and Ki-μ (human μ-opioid receptor, A2) radioligand binding

Compound	μ and σ1 dual binding
CC1OC2(CCN(CCc3ccccc3)CC2)CN(c2cnn(C)c2)C1=O (centres unmarked) [Example 210, 2-methyl-4-(1-methyl-1H-pyrazol-4-yl)-9-phenethyl-1-oxa-4,9-diazaspiro[5.5]undecan-3-one]	++
COc1ccc(CCN2CCC3(CC2)CN(c2ccccc2)CCO3)cc1 [Example 332, 9-(4-methoxyphenethyl)-4-phenyl-1-oxa-4,9-diazaspiro[5.5]undecane]	++
CC1OC2(CCN(CCc3ccc(N)cn3)CC2)CN(c2ccccc2F)C1=O (centres unmarked) [Example 230, 9-(2-(5-aminopyridin-2-yl)ethyl)-4-(2-fluorophenyl)-2-methyl-1-oxa-4,9-diazaspiro[5.5]undecan-3-one]	++
O=C1COC2(CCN(CCc3ccccc3)CC2)CN1Cc1ccncc1 [Example 165, 9-phenethyl-4-(pyridin-4-ylmethyl)-1-oxa-4,9-diazaspiro[5.5]undecan-3-one]	++
CC1OC2(CCN(CCc3cccc(NS(N)(=O)=O)c3)CC2)CN(c2ccccc2)C1=O (centres unmarked) [Example 265, N-[3-(2-{2-methyl-3-oxo-4-phenyl-1-oxa-4,9-diazaspiro[5.5]undecan-9-yl}ethyl)phenyl]aminosulfonamide]	++
COC(=O)CCN1CCC2(CC1)CN(Cc1ccccc1)C(=O)C1(CC1)O2 [Example 346, methyl 3-(12-benzyl-13-oxo-4-oxa-8,12-diazadispiro[2.1.5.3]tridecan-8-yl)propanoate]	++

Same assay, conditions: read-out: μ and σ1 dual binding

Compound	pKi
CC1OC2(CCN(CCc3cccc([N+](=O)[O-])c3)CC2)CN(c2ccccc2)C1=O (centres unmarked) [Example 67, 2-methyl-9-(3-nitrophenethyl)-4-phenyl-1-oxa-4,9-diazaspiro[5.5]undecan-3-one]	< 6.30
CC1OC2(CCN(CCn3ccc([N+](=O)[O-])n3)CC2)CN(c2ccccc2)C1=O (centres unmarked) [Example 110, 2-methyl-9-(2-(3-nitro-1H-pyrazol-1-yl)ethyl)-4-phenyl-1-oxa-4,9-diazaspiro[5.5]undecan-3-one]	< 6.30
O=C1C(CO)OC2(CCN(CCc3ccccc3)CC2)CN1c1ccccc1 (centres unmarked) [Example 283, 2-(hydroxymethyl)-9-phenethyl-4-phenyl-1-oxa-4,9-diazaspiro[5.5]undecan-3-one]	> 6.30
CC1OC2(CCN(CCn3nccc3NC(=O)OC(C)(C)C)CC2)CN(c2ccccc2)C1=O (centres unmarked) [Example 116, tert-butyl (1-(2-(2-methyl-3-oxo-4-phenyl-1-oxa-4,9-diazaspiro[5.5]undecan-9-yl)ethyl)-1H-pyrazol-5-yl)carbamate]	< 6.30
O=C1N(c2ccccc2)CC2(CCN(CCc3ccccc3)CC2)OC12CC2 [Example 225, 8-phenethyl-12-phenyl-4-oxa-8,12-diazadispiro[2.1.5.3]tridecan-13-one]	> 7.00
CC(C)(C)OC(=O)Nc1nc(CCN2CCC3(CC2)CN(Cc2ccc(C(F)(F)F)cn2)C(=O)CO3)cs1 [Example 106, tert-butyl (4-(2-(3-oxo-4-((5-(trifluoromethyl)pyridin-2-yl)methyl)-1-oxa-4,9-diazaspiro[5.5]undecan-9-yl)ethyl)thiazol-2-yl)carbamate]	< 6.30
CNC(=O)c1ccc(CCN2CCC3(CC2)CN(c2ccccc2)C(=O)C(C)O3)cc1 (centres unmarked) [Example 274, N-methyl-4-(2-(2-methyl-3-oxo-4-phenyl-1-oxa-4,9-diazaspiro[5.5]undecan-9-yl)ethyl)benzamide hydrochloride]	> 6.30
Oc1ccccc1CCN1CCC2(CC1)CN(Cc1ccccn1)CCO2 [Example 329, 2-(2-(4-(pyridin-2-ylmethyl)-1-oxa-4,9-diazaspiro[5.5]undecan-9-yl)ethyl)phenol hydrochloride]	> 7.00
C=C1OC2(CCN(CCc3ccccc3)CC2)CN(c2ccccc2F)C1=O [Example 22, 4-(2-fluorophenyl)-2-methylene-9-phenethyl-1-oxa-4,9-diazaspiro[5.5]undecan-3-one]	< 6.30
O=C1N(c2cnccc2C(F)(F)F)CC2(CCN(CCc3ccccc3F)CC2)OC12CC2 [Example 223, 8-(2-fluorophenethyl)-12-(4-(trifluoromethyl)pyridin-3-yl)-4-oxa-8,12-diazadispiro[2.1.5.3]tridecan-13-one hydrochloride]	> 7.00
CC1OC2(CCN(CCc3ccccc3F)CC2)CN(c2cccnc2C(F)(F)F)C1=O (centres unmarked) [Example 130, 9-(2-fluorophenethyl)-2-methyl-4-(2-(trifluoromethyl)pyridin-3-yl)-1-oxa-4,9-diazaspiro[5.5]undecan-3-one dihydrochloride]	> 6.30
N#CCCN1CC2(CCN(CCc3ccccc3)CC2)OC2(CC2)C1=O [Example 181, 3-[13-oxo-8-phenethyl-4-oxa-8,12-diazadispiro[2.1.5.3]tridecan-12-yl]propanenitrile hydrochloride]	< 6.30
CC1OC2(CCN(CCc3ccccc3)CC2)CN(c2cccc([N+](=O)[O-])c2)C1=O (centres unmarked) [Example 199, 2-methyl-4-(3-nitrophenyl)-9-phenethyl-1-oxa-4,9-diazaspiro[5.5]undecan-3-one]	< 6.30
CC1OC2(CCN(CCc3ccccc3)CC2)CN(Cc2ncccc2F)C1=O (centres unmarked) [Example 173, 4-((3-fluoropyridin-2-yl)methyl)-2-methyl-9-phenethyl-1-oxa-4,9-diazaspiro[5.5]undecan-3-one]	> 7.00
COc1ccc(CN2CC3(CCN(CCc4ccccc4F)CC3)OC3(CC3)C2=O)cc1 [Example 148, 8-(2-fluorophenethyl)-12-(4-methoxybenzyl)-4-oxa-8,12-diazadispiro[2.1.5.3]tridecan-13-one]	< 6.30
